# Test results as given in ChEMBL document CHEMBL1201862, “PubChem BioAssay data set” (2004).
# Activity calls are given as the source filed them.
# How the values were obtained:
# [1] = target: Heat shock protein HSP 90-alpha (Homo sapiens, UniProt P07900); type: functional, organism-based
# [2] = target: T1, Rac GTPase-activating protein 1 (Homo sapiens, UniProt Q9H0H5); experiment: blockers of MgcRacGAP-driven Rac1 GTP hydrolysis – biochemical, ADP Hunter fluorescence, primary and confirmatory, confirmation (AID 624330); type: functional
# T1 sequence (Q9H0H5 whole entry): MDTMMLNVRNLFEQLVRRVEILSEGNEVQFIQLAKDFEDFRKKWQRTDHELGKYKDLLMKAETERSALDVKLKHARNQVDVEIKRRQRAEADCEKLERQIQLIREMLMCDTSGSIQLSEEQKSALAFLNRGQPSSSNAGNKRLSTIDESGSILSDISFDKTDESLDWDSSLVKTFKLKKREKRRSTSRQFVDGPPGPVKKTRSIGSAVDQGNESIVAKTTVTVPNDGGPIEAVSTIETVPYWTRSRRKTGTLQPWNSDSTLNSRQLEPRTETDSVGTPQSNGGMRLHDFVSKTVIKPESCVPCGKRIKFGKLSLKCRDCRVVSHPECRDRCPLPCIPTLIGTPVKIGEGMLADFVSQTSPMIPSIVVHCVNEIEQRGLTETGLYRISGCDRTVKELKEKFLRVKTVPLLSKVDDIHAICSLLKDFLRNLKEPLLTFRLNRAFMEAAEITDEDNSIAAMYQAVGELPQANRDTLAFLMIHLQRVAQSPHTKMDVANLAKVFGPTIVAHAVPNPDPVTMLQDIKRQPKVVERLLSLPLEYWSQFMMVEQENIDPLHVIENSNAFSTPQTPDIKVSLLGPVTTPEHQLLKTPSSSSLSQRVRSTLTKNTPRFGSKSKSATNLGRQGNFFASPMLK
# [3] = target: T2, DNA repair and recombination protein RAD54-like (Homo sapiens, UniProt Q92698); experiment: RAD54 Holliday junction migration blockers – biochemical, fluorescence, cherry-picked samples, dose series, confirmation (AID 651657); type: functional
# T2 sequence (Q92698 whole entry): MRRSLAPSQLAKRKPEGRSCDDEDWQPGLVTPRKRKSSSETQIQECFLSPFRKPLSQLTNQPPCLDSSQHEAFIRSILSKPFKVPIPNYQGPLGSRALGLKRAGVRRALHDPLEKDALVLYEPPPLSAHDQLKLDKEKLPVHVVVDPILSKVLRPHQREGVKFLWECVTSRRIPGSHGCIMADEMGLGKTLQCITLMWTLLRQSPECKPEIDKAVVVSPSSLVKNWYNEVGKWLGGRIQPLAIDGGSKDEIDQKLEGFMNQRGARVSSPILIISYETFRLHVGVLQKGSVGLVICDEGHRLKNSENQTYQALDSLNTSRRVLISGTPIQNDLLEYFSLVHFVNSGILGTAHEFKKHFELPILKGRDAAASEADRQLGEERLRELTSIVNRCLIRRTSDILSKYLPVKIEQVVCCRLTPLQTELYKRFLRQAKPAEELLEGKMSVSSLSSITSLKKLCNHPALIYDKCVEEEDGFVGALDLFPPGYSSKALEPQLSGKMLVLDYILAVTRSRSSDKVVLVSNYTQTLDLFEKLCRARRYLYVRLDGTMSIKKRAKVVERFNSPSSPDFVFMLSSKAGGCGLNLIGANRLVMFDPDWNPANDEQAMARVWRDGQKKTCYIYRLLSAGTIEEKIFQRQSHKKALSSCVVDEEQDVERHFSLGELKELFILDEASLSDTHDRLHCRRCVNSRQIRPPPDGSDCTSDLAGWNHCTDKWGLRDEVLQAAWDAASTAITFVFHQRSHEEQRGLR
# [4] = target: T3, Probable nicotinate-nucleotide adenylyltransferase (Staphylococcus aureus (strain N315), UniProt P65502); type: functional, Staphylococcus aureus subsp. aureus N315;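 as to IC50 Mean: confirmatory dose-response retesting of NadD inhibitor hits first found in an ultra-high-throughput screen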
# T3 sequence (P65502 whole entry): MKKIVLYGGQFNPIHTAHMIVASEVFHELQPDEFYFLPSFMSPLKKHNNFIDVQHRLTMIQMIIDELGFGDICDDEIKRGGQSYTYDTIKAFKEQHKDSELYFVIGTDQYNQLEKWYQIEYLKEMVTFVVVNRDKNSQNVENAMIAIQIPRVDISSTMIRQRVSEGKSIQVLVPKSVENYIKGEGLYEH
# [5] = target: T3, Probable nicotinate-nucleotide adenylyltransferase; type: functional, Staphylococcus aureus subsp. aureus N315; conditions: read-out: IC50_Mean
# [6] = target: SWI/SNF-related matrix-associated actin-dependent regulator of chromatin subfamily A member 2 (Homo sapiens, UniProt P51531); experiment: Luminescence-based cell-based high throughput dose response assay to identify activators of the function of SWI/SNF related, matrix associated, actin dependent regulator of chromatin, subfamily a, member 2 (SMARCA2, BRM).; type: functional
# Chain of SWI/SNF-related matrix-associated actin-dependent regulator of chromatin subfamily A member 2 (P51531 whole entry): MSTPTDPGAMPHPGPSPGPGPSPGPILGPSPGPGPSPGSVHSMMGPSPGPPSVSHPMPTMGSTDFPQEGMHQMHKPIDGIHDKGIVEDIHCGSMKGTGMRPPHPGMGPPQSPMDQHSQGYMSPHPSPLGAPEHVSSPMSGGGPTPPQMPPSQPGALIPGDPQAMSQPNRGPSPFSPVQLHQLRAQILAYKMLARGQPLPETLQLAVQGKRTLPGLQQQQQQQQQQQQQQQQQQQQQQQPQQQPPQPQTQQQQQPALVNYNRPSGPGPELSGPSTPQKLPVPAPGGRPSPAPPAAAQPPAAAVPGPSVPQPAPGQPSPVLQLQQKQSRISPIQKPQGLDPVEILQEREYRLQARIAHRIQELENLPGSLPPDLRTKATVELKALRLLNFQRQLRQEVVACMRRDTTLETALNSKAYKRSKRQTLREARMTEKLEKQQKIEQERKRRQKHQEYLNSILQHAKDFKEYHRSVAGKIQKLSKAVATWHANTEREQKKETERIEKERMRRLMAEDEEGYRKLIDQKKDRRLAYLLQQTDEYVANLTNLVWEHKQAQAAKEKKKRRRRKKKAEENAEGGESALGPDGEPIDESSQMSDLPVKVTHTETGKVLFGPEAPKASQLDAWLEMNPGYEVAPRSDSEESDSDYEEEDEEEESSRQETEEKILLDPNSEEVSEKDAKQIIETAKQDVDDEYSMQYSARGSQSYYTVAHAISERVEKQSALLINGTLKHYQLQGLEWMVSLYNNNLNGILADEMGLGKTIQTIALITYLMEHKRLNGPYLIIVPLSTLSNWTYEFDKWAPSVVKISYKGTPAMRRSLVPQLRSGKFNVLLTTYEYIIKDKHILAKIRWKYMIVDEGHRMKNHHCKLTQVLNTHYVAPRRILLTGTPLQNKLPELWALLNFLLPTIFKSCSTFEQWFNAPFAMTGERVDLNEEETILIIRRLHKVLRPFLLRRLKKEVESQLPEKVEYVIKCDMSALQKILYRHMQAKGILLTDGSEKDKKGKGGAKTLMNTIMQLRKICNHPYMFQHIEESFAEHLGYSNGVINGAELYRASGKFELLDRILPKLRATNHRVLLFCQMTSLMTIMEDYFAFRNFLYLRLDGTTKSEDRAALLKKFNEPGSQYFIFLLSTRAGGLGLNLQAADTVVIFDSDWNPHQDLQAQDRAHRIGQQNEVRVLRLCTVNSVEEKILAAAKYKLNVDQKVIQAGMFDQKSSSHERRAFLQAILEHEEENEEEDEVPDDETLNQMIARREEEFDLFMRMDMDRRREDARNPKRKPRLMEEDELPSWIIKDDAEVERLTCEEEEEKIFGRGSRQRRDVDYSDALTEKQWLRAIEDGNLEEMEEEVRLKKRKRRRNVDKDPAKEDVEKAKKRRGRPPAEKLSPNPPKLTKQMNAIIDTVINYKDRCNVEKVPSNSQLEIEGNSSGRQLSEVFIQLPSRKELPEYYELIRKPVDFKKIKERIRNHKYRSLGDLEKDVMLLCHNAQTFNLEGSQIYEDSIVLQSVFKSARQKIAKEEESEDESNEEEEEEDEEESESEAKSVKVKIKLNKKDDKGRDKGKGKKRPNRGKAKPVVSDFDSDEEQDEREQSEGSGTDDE
# [7] = Counterscreen for activators of the function of SWI/SNF related, matrix associated, actin dependent regulator of chromatin, subfamily a, member 2 (SMARCA2, BRM): Luminescence-based cell-based high throughput dose response assay to identify non-selective compounds using the VP16 reporter assay.; type: functional
# [8] = target: T4, Corticotropin-releasing factor receptor 2/Corticotropin-releasing factor-binding protein (Homo sapiens, UniProt P24387+Q13324); experiment: Dose Response confirmation of uHTS hits for small molecule antagonists of the CRF-binding protein and CRF-R2 receptor complex.; type: functional; conditions: read-out: IC50_Mean
# T4 sequence (Q13324 whole entry): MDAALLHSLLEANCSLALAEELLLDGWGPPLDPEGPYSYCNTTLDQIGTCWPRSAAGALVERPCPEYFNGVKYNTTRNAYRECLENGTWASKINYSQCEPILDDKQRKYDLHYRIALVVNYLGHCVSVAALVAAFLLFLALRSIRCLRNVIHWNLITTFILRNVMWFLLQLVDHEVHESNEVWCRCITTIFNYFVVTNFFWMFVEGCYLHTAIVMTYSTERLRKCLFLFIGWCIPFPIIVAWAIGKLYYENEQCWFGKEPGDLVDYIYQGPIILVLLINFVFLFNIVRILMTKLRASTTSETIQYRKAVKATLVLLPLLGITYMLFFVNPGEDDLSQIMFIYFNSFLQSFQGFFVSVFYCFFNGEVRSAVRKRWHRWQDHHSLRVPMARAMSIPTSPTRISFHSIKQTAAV
# T4 sequence (P24387 whole entry): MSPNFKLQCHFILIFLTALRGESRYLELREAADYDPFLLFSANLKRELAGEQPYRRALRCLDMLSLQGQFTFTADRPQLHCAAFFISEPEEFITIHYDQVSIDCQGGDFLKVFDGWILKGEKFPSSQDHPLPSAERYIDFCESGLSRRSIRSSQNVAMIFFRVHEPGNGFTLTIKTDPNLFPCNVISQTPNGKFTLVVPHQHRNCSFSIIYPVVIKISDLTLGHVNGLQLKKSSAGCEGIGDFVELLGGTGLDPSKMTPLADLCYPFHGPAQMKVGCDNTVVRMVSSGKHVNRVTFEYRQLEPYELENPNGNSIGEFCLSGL
# [9] = target: T4, Corticotropin-releasing factor receptor 2/Corticotropin-releasing factor-binding protein; experiment: activators of CRF receptor 2 with binding protein – uHTS hits, confirmation (AID 602473); type: functional; conditions: read-out: EC50_Mean
# [10] = target: Arf-GAP with SH3 domain, ANK repeat and PH domain-containing protein 1 (Homo sapiens, UniProt Q9ULH1); type: functional;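 also: biochemical fluorescence polarization dose–response screen measuring inhibition of ASAP1; ASAP1 GAP domain stimulating GTP hydrolysis by truncated human ARF1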
# Chain of Arf-GAP with SH3 domain, ANK repeat and PH domain-containing protein 1 (Q9ULH1 whole entry, the tested form may be a part): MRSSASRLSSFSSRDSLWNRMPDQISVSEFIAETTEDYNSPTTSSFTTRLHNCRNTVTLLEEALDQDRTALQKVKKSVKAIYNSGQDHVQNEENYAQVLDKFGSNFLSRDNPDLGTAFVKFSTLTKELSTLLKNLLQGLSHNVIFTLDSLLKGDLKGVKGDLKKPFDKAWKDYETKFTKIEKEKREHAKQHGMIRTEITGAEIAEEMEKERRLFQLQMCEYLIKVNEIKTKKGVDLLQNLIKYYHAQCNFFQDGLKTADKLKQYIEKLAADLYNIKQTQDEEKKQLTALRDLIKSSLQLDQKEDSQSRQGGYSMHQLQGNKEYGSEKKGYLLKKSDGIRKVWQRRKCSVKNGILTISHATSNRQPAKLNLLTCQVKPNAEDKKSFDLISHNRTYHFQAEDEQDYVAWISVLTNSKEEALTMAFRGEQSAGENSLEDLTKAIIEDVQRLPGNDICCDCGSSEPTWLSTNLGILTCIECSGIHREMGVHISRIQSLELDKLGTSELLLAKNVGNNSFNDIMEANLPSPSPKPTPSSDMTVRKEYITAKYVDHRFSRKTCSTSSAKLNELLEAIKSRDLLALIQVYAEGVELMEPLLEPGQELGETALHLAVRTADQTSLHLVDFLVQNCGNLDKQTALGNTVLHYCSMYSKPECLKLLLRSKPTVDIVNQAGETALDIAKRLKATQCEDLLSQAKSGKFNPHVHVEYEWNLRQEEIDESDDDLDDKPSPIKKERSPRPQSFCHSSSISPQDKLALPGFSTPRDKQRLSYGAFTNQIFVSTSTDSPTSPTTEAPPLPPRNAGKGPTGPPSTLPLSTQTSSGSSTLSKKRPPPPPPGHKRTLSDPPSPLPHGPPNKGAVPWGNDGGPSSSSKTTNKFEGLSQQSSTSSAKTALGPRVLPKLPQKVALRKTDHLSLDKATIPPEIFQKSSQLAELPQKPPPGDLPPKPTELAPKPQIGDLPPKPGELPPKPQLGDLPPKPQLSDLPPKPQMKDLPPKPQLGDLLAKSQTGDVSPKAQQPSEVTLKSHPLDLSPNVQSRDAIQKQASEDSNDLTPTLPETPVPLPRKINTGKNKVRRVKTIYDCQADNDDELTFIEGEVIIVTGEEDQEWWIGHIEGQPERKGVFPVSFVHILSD
# [11] = target: T5, DNA repair protein RAD52 homolog (Homo sapiens, UniProt P43351); type: functional, biochemical
# T5 sequence (P43351 whole entry): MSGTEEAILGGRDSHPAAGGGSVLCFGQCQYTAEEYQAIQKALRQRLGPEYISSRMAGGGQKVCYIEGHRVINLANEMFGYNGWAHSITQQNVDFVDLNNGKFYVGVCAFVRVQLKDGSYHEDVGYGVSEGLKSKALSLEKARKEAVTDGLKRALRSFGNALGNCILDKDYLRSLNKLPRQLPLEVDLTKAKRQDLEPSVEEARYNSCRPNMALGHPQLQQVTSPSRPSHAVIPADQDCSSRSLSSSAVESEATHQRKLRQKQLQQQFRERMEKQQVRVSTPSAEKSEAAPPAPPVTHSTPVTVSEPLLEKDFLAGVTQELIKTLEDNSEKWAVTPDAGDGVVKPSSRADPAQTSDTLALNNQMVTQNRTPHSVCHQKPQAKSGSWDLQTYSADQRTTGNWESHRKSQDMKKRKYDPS
# [12] = target: Protein Wnt-3a (Mus musculus, UniProt P27467); experiment: antagonism of Wnt3a pathway luciferase reporter – Wnt-LIGHT cells, luminescence, selectivity assay for Gli-SUFU antagonist project, dose response (AID 651570); type: functional; conditions: read-out: IC50_Mean;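 also: Wnt-LIGHT reporter cells stimulated with conditioned medium from Wnt3a-producing cells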
# Chain of Protein Wnt-3a (P27467 whole entry): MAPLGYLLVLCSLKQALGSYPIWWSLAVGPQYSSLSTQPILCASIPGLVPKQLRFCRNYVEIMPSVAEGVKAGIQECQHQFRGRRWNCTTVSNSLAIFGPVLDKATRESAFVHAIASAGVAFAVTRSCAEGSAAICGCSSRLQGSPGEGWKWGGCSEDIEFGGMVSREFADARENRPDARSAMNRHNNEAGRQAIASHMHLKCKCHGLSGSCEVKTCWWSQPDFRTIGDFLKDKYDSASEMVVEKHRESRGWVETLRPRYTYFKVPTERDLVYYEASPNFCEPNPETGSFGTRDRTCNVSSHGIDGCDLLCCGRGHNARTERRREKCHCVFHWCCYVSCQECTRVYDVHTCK
# [13] = Luminescence Cell-Based Dose Confirmation HTS to Identify Activators of 5'UTR Stem-Loop Driven Alpha-Synuclein mRNA Translation in H4 Neuroglioblastoma Cells. [Related pubchem assays: 1829 (Project Summary), 1814 (Primary HTS)]; type: functional
# [14] = Luminescence Cell-Based Dose Response HTS to Identify Activators of Luciferase Translation or Activity in H4 […] Cells. [Related pubchem assays: 1829 (Project Summary), 1814 (Primary HTS)]; type: functional
# [15] = system: H4; experiment: Luminescence Cell-Based Dose Response HTS to Identify Activators of 5'UTR Stem-Loop Driven Prion Protein mRNA Translation in H4 Neuroglioblastoma Cells. [Related pubchem assays: 1829 (Project Summary), 1814 (Primary HTS)]; type: functional; conditions: Homo sapiens
# [16] = target: T6, Cysteine protease ATG4B (Homo sapiens, UniProt Q9Y4P1); type: functional;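 also: Fluorescence-based dose-response confirmation assay measuring inhibition of ATG4B activity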
# T6 sequence (Q9Y4P1 whole entry): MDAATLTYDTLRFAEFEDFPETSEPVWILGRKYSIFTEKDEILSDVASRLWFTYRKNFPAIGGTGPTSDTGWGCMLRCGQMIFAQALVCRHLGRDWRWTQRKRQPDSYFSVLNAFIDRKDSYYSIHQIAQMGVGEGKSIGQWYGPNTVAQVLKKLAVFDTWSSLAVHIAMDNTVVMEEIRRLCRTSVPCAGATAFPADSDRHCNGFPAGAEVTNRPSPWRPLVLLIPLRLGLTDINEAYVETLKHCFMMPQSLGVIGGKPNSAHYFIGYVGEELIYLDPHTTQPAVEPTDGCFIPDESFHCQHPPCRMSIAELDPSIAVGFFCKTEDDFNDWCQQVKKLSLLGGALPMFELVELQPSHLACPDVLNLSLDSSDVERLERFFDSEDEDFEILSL
# [17] = target: Phospholipase A2 (Homo sapiens, UniProt P04054); type: functional;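 also: confirmatory dose-response counterscreen on phospholipase A2, testing hits that came from an ultra-high-throughput screen for ATG4B inhibitors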
# Chain of Phospholipase A2 (P04054 whole entry): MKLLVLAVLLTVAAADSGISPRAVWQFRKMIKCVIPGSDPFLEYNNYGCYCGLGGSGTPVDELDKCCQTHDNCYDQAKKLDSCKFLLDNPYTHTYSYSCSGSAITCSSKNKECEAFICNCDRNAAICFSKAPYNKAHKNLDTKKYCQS
# [18] = target: T7, Heat shock factor protein 1 (Mus musculus, UniProt P38532); experiment: decrease of HSF1-responsive luciferase luminescence – cell-based, NIH3T3, dose retest, confirmation (AID 2382); type: functional;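 also: NIH3T3 fibroblasts with HSF1-driven luciferase reporter stressed by proteasome inhibitor MG132; luminescence from HSF1-driven luciferase expression after 8 hours of MG132 stress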
# T7 sequence (P38532 whole entry): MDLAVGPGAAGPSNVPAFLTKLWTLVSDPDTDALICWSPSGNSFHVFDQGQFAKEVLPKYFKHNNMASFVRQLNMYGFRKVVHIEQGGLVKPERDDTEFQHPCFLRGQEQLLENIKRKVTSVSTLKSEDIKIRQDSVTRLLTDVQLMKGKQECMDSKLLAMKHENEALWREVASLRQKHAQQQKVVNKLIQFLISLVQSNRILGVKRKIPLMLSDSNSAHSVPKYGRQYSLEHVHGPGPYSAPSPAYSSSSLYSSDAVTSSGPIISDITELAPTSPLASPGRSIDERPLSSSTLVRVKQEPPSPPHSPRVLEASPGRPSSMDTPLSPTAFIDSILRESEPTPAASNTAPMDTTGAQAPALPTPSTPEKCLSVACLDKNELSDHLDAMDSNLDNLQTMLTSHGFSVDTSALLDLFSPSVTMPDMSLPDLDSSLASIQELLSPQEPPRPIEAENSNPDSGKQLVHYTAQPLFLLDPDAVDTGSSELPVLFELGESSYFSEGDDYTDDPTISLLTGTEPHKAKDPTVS
# [19] = Luminescence Cell-Based Dose Retest to Confirm Inhibitors of Cancer Stem Cells. [Related pubchem assays (depositor defined):AID2717, AID2721]; type: functional; conditions: Homo sapiens
# [20] = viability loss of HMLE_sh_eGFP cells – cell-based, luminescence, counter-screen for HMLE_sh_ECad selective toxicity project, dose response (AID 463074); type: functional, Homo sapiens;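 also: HMLE human mammary epithelial cells expressing control shRNA against eGFP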
compound,measurement,setting,value
O=C1C=CC(=O)N1c1ccc(Nc2ccccc2)cc1,AC50,[1],1.85 µM (active)
same,IC50,[2],27 µM (active)
CCN(CC)CCOc1c(Br)ccc2c1sc1nc3n(c(=O)c12)CCC3,AC50,[3],8.15 µM (active)
CCOC(=O)c1ccccc1N1C(=O)C2Sc3nc(O)sc3C(/C=C/c3ccccc3)C2C1=O (stereo not drawn),IC50,[4],12.2 µM (active)
same,IC50,[5],45.9 µM (active)
C=COC(=O)c1sc2nc(C)cc(C)c2c1N,EC50,[6],> 91.1 µM (inactive)
same,EC50,[7],> 91.1 µM (inactive)
COc1ccc(-n2nnnc2SCC(=O)c2ccc(OC)c(OC)c2)cc1,IC50,[8],> 47.1 µM (inactive)
same,EC50,[9],> 53 µM (inactive)
same,IC50,[10],33 µM (inactive)
CCN(CC)CCN1CCN(c2cncc(-c3cccc(N)c3)n2)CC1,AC50,[3],100 µM (inactive)
same,AC50,[11],1.56 µM (active)
CN1/C(=C\C=N\c2ccccc2)C(C)(C)c2ccccc21,IC50,[12],7.05 µM (active)
O=C(NC(=S)NCCC1=CCCCC1)c1ccc(Br)o1,EC50,[13],83 µM (active)
same,EC50,[14],15.1 µM (active)
same,EC50,[15],18.1 µM (active)
same,IC50,[16],15.9 µM (active)
same,IC50,[17],9.44 µM (active)
O=C(NCCNc1ccnc2cc(Cl)ccc12)c1ccccc1F,EC50,[18],39.7 µM (active)
same,IC50,[12],3.93 µM (active)
O=C(Nc1nnc(SCc2ccc(F)cc2)s1)C1Cc2ccccc2CN1C(=O)c1ccco1 (stereo not drawn),IC50,[4],13.4 µM (active)
same,IC50,[5],34 µM (active)
COc1ccc2c(c1)CCc1c(C(=O)N3CCc4ccccc4C3)noc1-2,AC50,[1],6.29 µM (active)
COC(=O)c1cc(NC(=O)c2ccc(Cn3cc(Cl)cn3)o2)cc(C(=O)OC)c1,IC50,[10],41 µM (inactive)
Cc1ccc(N2C(=O)CC(N(CCc3ccccc3)C(=S)Nc3ccc(N(C)C)cc3)C2=O)cc1 (stereo not drawn),AC50,[19],5.65 µM (active)
same,AC50,[20],154 µM (active)
same,IC50,[4],36.8 µM (active)
same,IC50,[5],77.7 µM (active)
